Series [1] can be described thus: Dye photo-bleaching under tungsten lamp irradiation. The series is classed as physicochemical. As for the experimental part:
Photo-bleaching. All samples contained 1 mM dye in a final volume of 10 mL. For nitrogen and oxygen saturation the samples were bubbled with solvent-saturated gas for 30 min. A 90 W halogen tungsten lamp was employed for irradiation, with a fan used for cooling. The temperature of samples was 25±1° C. during reactions. The absorption spectrum of each sample was measured before irradiation and after every 10 h period. For the trapping experiment thioanisole (1.0 M) was added to oxygen-saturated butanol solution of dye 1b. After 60 h of irradiation the reaction mixture was analyzed by GC-MS for products formed. The products, methylphenylsulfoxide and methylphenyl sulfone, were identified by comparison with authentic samples.
Dyes used in living cells must be photostable to provide many sequential images and to obtain sufficient light from minimal amounts of exogenous labeled material. The photostability of the new dyes was characterized by exposing them to constant illumination from a tungsten lamp filtered through glass, a broad spectrum light source that provided essentially equal intensity throughout the spectral range where the dyes would be irradiated in vivo. A fan was used to prevent heating, and dye solutions were adjusted for equal maximal absorbance, kept below 1 μM to minimize the inner filter effect. […] Photo-bleaching followed first-order kinetics in all cases.

Series [2] addresses T1, Cdc42 (Homo sapiens, UniProt P60953).
T1 construct: 6His; made in house; host or cells: E. coli BL21DE3, only by the words 'analogous procedures' to the CBD preparation
The experiment in a line: Analysis of Cdc42 activation: fluorescence of dye-labeled WASP fragment. In kind it is binding. As for the experimental part:
Analysis of Cdc42 Activation. A solution of the WASP conjugate (300 nM) in a assay buffer (50 mM Tris-HCl, pH 7.6, 50 mM NaCl, 5 mM MgCl2, 1 mM DTT) was mixed 1:1 (v/v) with solutions of Cdc42, pre-equilibrated with 10 mM GDP or GTPγS as described below. Emission at 630 nm and excitation at 600 nm were used to acquire excitation and emission spectra, respectively. For nucleotide dependence, Cdc42 (500 nM) was preincubated with varying concentrations of GTPγS (1-500 nM).

The subject of series [3] is Erk2. The experiment in a line: Fluorescence response of dye-labeled Erk2 to phosphorylation. In kind it is biochemical. The text has this:
This Example illustrates that the dyes of the invention can be attached directly to a protein of interest (e.g. Erk), where the dyes respond to conformational changes and phosphorylation. In particular, the I-TBA-3CNPh dye was attached to cysteine 214 of the MAP kinase Erk2, where it responded to Erk phosphorylation. A structure for the I-TBA-3CNPh dye is provided below.
This model was based on tryptic digestion combined with mass spectroscopic sequencing of the labeled protein, and on docking studies. The lighter (yellow) residues represent two lysines undergoing hydrogen bonding with the dye, and a tryptophan interacting through π-π stacking. Phosphorylation of the purple residues altered the conformation of the protein, affecting the tryptophan interaction and perturbing some of the hydrogen bonds.

Series [4] relates to Cdc42 activation. Briefly: Peripheral Cdc42 activation in cells treated with cytoskeletal agents. In kind it is cell-based. The text has this: Microtubules or actin may direct Cdc42 activation to specific peripheral locations. This possibility was explored by treating cells with the microtubule-depolymerizing agents nocodazole and colchicine, or with cytochalasin D, an inhibitor of actin polymerization. […] Microtubules may therefore localize interactions between Cdc42 and guanine nucleotide exchange factors by directing vesicle trafficking or regulating events at adhesion complexes.

The nature of series [5]: Water solubility and aggregation of dyes in water (absorbance spectra).
Description: Labeling was accomplished only by including greater than 5% DMSO as cosolvent.
Series [6] can be described thus: Photophysical properties of dyes in various solvents (absorbance, emission, quantum yield). The series is classed as physicochemical. Also noted: ε × F / ε × Φ: unit not given here. As for the experimental part:
Analytical grade reagents were purchased from major suppliers. […] Emission and excitation spectra were obtained using a Spex Fluorolog 2 spectrofluorometer at 23° C. […] Demas et al., J. Phys. […] All operations with dyes were performed under dim light. Flasks containing dyes were wrapped with aluminum foil.

T1 sequence (P60953 whole entry, species assumed): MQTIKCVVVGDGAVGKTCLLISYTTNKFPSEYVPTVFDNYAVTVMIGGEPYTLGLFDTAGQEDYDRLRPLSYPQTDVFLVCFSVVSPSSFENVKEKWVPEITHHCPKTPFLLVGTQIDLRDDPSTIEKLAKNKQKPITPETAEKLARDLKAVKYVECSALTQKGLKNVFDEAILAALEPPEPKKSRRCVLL

Turning to `CCN1/C(=C/C=C/C=C/C2=[N+](CCCCCC(=O)O)c3ccc(S(=O)(=O)O)cc3C2(C)C)C(C)(C)c2cc(S(=O)(=O)[O-])ccc21` [Cy5, reference compound], the results for the “Absolute rate constant of dye photo-bleaching, kph × 10^6” value (“Absolute rate constant” below) in series [1] (BuOH) and in series [1] (MeOH) were 0.77 s^−1 and 1.0 s^−1, respectively. Further, in series [2] (control experiments, WASP fragment labeled with Cy3 or Cy5), the “change in fluorescence intensity of cyanine-labeled WASP fragment” value was “no change in fluorescence intensity was observed”.

Regarding `CC1(C)/C(=C\C=C\C=C2C(=O)N(Cc3cccc(C#N)c3)C(=S)N(Cc3cccc(C#N)c3)C2=O)N(CCCNC(=O)CI)c2ccc(S(=O)(=O)O)cc21` [I-TBA-3CNPh], the “fluorescence change of dye-labeled Erk2” value in series [3] (incubation with MEK kinase and ATP) was “phosphorylation-induced increase in fluorescence”.

For the molecule `COc1cc2c(c(OC)c1OC)-c1ccc(OC)c(=O)cc1[C@@H](NC(C)=O)CC2` [colchicine], in series [4], the “effect on peripheral Cdc42 activation” value is listed as “markedly affected peripheral Cdc42 activation”.

Regarding `C=C1[C@@H](C)[C@H]2[C@H](Cc3ccccc3)NC(=O)[C@]23[C@H](OC(C)=O)/C=C/[C@@](C)(O)C(=O)[C@@H](C)C/C=C/[C@H]3[C@@H]1O` [cytochalasin D], the “effect on peripheral Cdc42 activation” value in series [4] is “Only nocodazole and colchicine markedly affected peripheral Cdc42 activation”.

With `CN1C(=O)C(=C/C=C/C=C2/Sc3ccccc3N2CCCS(=O)(=O)[O-])C(=O)N(C)C1=S.[Na+]` [dye 1c, Sodium 3-[(2E)-2-[(2E)-4-(1,3-Dimethyl-4,6-dioxo-2-thioxotetrahydro-pyrimidin-5(2H)-ylidene)but-2-enylidene]-1,3-benzothiazol-3(2H)-yl]propane-1-sulfonate], in series [5] (in words), the water solubility result is reported as “significantly improved”.

With `CCN1\C(=C/C=C/C=C2/C(=O)c3ccccc3S2(=O)=O)Sc2ccccc21` [dye 2a, (2Z)-2-[(2E,4E)-4-(3-Ethyl-1,3-benzothiazol-2(3H)-ylidene)but-2-enylidene]-1-benzothiophen-3(2H)-one 1,1-Dioxide], the “Abs. λmax” value in series [6] (solvent BuOH) stood at 604 nm; in series [6] (solvent C6H6) it was 591 nm; in series [6] (solvent DMF), 602 nm; in series [6] (solvent MeOH) it was 598 nm; in series [6] (solvent OcOH), 606 nm. Also, the “Emission λmax” value amounted to 622 nm in series [6] (solvent BuOH); 617 nm in series [6] (solvent C6H6); 619 nm in series [6] (solvent DMF); 617 nm in series [6] (solvent MeOH); 623 nm in series [6] (solvent OcOH). Besides, the “Φ (quantum yield of fluorescence)” value was 0.12 in series [6] (solvent BuOH); 0.16 in series [6] (solvent C6H6); 0.22 in series [6] (solvent DMF); 0.05 in series [6] (solvent MeOH); 0.17 in series [6] (solvent OcOH). For the same molecule, the “ε (molar extinction coefficient)” value is “(163000)” in series [6] (solvent BuOH); “(152000)” in series [6] (solvent C6H6); “(173000)” in series [6] (solvent DMF); “(143000)” in series [6] (solvent MeOH); “(168000)” in series [6] (solvent OcOH). Besides, the “ε × F” value in series [6] (solvent BuOH) was found to be 20000; in series [6] (solvent C6H6) it was 24000; in series [6] (solvent DMF), 38000; in series [6] (solvent MeOH), 7000; in series [6] (solvent OcOH), 29000. Besides, the “Absolute rate constant” value in series [1] (BuOH) worked out at 5.2 s^−1; in series [1] (MeOH), 3.0 s^−1.

`CN1\C(=C/C=C/C=C2/C(=O)c3ccccc3S2(=O)=O)C(C)(C)c2ccccc21` [dye 4a, (2Z)-2-[(2E,4Z)-4-(1,3,3-Trimethyl-1,3-dihydro-2H-indol-2-ylidene)-but-2-enylidene]-1-benzothiophen-3(2H)-one 1,1-Dioxide]: the “Abs. λmax” value in series [6] (solvent BuOH) was 587 nm; in series [6] (solvent C6H6), 571 nm; in series [6] (solvent DMF), 586 nm; in series [6] (solvent MeOH), 586 nm; in series [6] (solvent OcOH), 587 nm. The “Emission λmax” value in series [6] (solvent BuOH) came out at 618 nm; in series [6] (solvent C6H6), 603 nm; in series [6] (solvent DMF), 615 nm; in series [6] (solvent MeOH) it was 615 nm; in series [6] (solvent OcOH), 617 nm. For the same molecule, the “Φ (quantum yield of fluorescence)” value was found to be 0.54 in series [6] (solvent BuOH); 0.42 in series [6] (solvent C6H6); 0.97 in series [6] (solvent DMF); 0.08 in series [6] (solvent MeOH); 0.98 in series [6] (solvent OcOH). In addition, the “ε (molar extinction coefficient)” value in series [6] (solvent BuOH) is “(134000)”; in series [6] (solvent C6H6), “(109000)”; in series [6] (solvent DMF), “(143000)”; in series [6] (solvent MeOH), “(143000)”; in series [6] (solvent OcOH) it was “(125000)”. The “ε × F” value in series [6] (solvent BuOH) was 72000; in series [6] (solvent C6H6) it was 46000; in series [6] (solvent DMF) it was 140000; in series [6] (solvent MeOH) it was 12000; in series [6] (solvent OcOH) it was 123000. For the same molecule, the figures for the “Absolute rate constant” value in series [1] (BuOH) and in series [1] (MeOH) were 0.65 s^−1 and 0.28 s^−1, respectively.

`COC(=O)Nc1nc2ccc(C(=O)c3cccs3)cc2[nH]1` [nocodazole]: in series [4], the “effect on peripheral Cdc42 activation” value is “markedly affected peripheral Cdc42 activation”.

Take “Sodium 3-{(2Z)-5-2-[(2E,4Z)-4-(1,1-Dioxido-3-oxo-1-benzothien-2(3H)-ylidene)but-2-enylidene]-3,3-dimethyl-2,3-dihydro-1H-indol-1-yl}propane-1-sulfonate [dye 4b]”: the “concentration at which dye did not aggregate” value in series [5] (in water, absorbance spectrum) is reported as “greater than 250 μM”.

“labeled Erk2 protein: MAP kinase Erk2 with I-TBA-3CNPh dye attached to cysteine 214”: the “phosphorylation activity of labeled Erk2” value in series [3] (Western blots, substrate Elk) is “retains phosphorylation activity”.

B1: labeled WASP fragment: WASP fragment (residues 201-320, F271C) derivatized with S—SO dye 2e (conjugate)
chain: DIQNPDITSSRYRGLPAPGPSPADKKRSGKKKISKADIGAPSGFKHVSHVGWDPQNGFDVNNLDPDLRSLCSRAGISEAQLTDAETSKLIYDFIEDQGGLEAVRQEMRRQEPLPPPPPPS
modifications: left off: small tags and cut ends
notes: WASP fragment (residues 201-320, F271C) derivatized with S—SO dye 2e
As for B1, the “increase in fluorescence intensity” value in series [2] (incubated with activated Cdc42) is recorded as 300%.
